Data as given in ChEMBL document CHEMBL4765385, “Synthesis and biological evaluation of β-lapachone-monastrol hybrids as potential anticancer agents” (Eur J Med Chem, 2020).
Blank lines part the entries; values can stand above or below the molecule they belong to. Active and inactive are the calls of the source. No cut-off for these calls is given here.

Columns and labels:
HepG2 [1] = assay: Antiproliferative activity against human HepG2 cells measured after 48 hrs by MTT assay; conditions: HepG2, 48 h
NCI-H596 [2] = assay: Antiproliferative activity against human NCI-H596 cells measured after 48 hrs by MTT assay; format: functional, cell-based; conditions: NCI-H596, 48 h
A549 [3] = assay: Antiproliferative activity against human A549 cells measured after 48 hrs in presence of NQO1 inhibitor dicoumarol by MTT assay; format: functional, cell-based; conditions: A549, 48 h
L02 = assay: Cytotoxicity against human L02 cells measured after 48 hrs by MTT assay; format: cell-based; conditions: L02, 48 h
[4] = target: NAD(P)H dehydrogenase [quinone] 1 (Homo sapiens, UniProt P15559); assay: Substrate activity at recombinant human C-terminal His-tagged NQO1 (1 to 274 residues) expressed in Escherichia coli assessed as metabolic rate by measuring NADPH oxidation per micromol protein at 10 mmol/L measured at 5 secs interval for 1 min by UV-Visible Spectrophotometric method; format: ADME
A549 [5] = assay: cells; conditions: Homo sapiens, A549, 48 h
in vitro = conditions: human, L02 cells and A549 cells
HepG2 [6] = assay: Induction of apoptosis in human HepG2 cells assessed as viable cells at 0.8 uM measured after 24 hrs by Annexin V-FITC/propidium iodide staining based flow cytometry (reference value: 94.73%); format: functional; conditions: read-out: Activity
HepG2 [7] = assay: Induction of apoptosis in human HepG2 cells assessed as early apoptotic cells at 0.8 uM measured after 24 hrs by Annexin V-FITC/propidium iodide staining based flow cytometry (reference value: 2.65%); format: functional
HepG2 [8] = assay: Induction of apoptosis in human HepG2 cells assessed as late apoptotic cells at 0.8 uM measured after 24 hrs by Annexin V-FITC/propidium iodide staining based flow cytometry (reference value: 2.27%); format: functional
HepG2 [9] = assay: Induction of apoptosis in human HepG2 cells assessed as necrotic cells at 0.8 uM measured after 24 hrs by Annexin V-FITC/propidium iodide staining based flow cytometry (reference value: 0.35%); format: functional
HepG2 [10] = assay: Induction of apoptosis in human HepG2 cells assessed as viable cells at 1.6 uM measured after 24 hrs by Annexin V-FITC/propidium iodide staining based flow cytometry (reference value: 94.73%); format: functional; conditions: read-out: Activity
HepG2 [11] = assay: Induction of apoptosis in human HepG2 cells assessed as early apoptotic cells at 1.6 uM measured after 24 hrs by Annexin V-FITC/propidium iodide staining based flow cytometry (reference value: 2.65%); format: functional
HepG2 [12] = assay: Induction of apoptosis in human HepG2 cells assessed as late apoptotic cells at 1.6 uM measured after 24 hrs by Annexin V-FITC/propidium iodide staining based flow cytometry (reference value: 2.27%); format: functional
HepG2 [13] = assay: Induction of apoptosis in human HepG2 cells assessed as necrotic cells at 1.6 uM measured after 24 hrs by Annexin V-FITC/propidium iodide staining based flow cytometry (reference value: 0.35%); format: functional
HepG2 [14] = assay: Induction of apoptosis in human HepG2 cells assessed as viable cells at 3.2 uM measured after 24 hrs by Annexin V-FITC/propidium iodide staining based flow cytometry (reference value: 94.73%); format: functional; conditions: read-out: Activity
HepG2 [15] = assay: Induction of apoptosis in human HepG2 cells assessed as early apoptotic cells at 3.2 uM measured after 24 hrs by Annexin V-FITC/propidium iodide staining based flow cytometry (reference value: 2.65%); format: functional
HepG2 [16] = assay: Induction of apoptosis in human HepG2 cells assessed as late apoptotic cells at 3.2 uM measured after 24 hrs by Annexin V-FITC/propidium iodide staining based flow cytometry (reference value: 2.27%); format: functional
HepG2 [17] = assay: Induction of apoptosis in human HepG2 cells assessed as necrotic cells at 3.2 uM measured after 24 hrs by Annexin V-FITC/propidium iodide staining based flow cytometry (reference value: 0.35%); format: functional
NCI-H596 [18] = assay: Induction of apoptosis in human NCI-H596 cells assessed as viable cells at 1.6 uM measured after 24 hrs by Annexin V-FITC/propidium iodide staining based flow cytometry (reference value: 95.17%); format: functional; conditions: read-out: Activity
NCI-H596 [19] = assay: Induction of apoptosis in human NCI-H596 cells assessed as early apoptotic cells at 1.6 uM measured after 24 hrs by Annexin V-FITC/propidium iodide staining based flow cytometry (reference value: 2.28%); format: functional
NCI-H596 [20] = assay: Induction of apoptosis in human NCI-H596 cells assessed as late apoptotic cells at 1.6 uM measured after 24 hrs by Annexin V-FITC/propidium iodide staining based flow cytometry (reference value: 1.91%); format: functional
NCI-H596 [21] = assay: Induction of apoptosis in human NCI-H596 cells assessed as necrotic cells at 1.6 uM measured after 24 hrs by Annexin V-FITC/propidium iodide staining based flow cytometry (reference value: 0.64%); format: functional
HepG2 [22] = assay: Induction of reactive oxygen species production in human HepG2 cells at 5 uM measured after 5 hrs by DCFH-DA staining based flow cytometry; format: functional, cell-based
NCI-H596 [23] = assay: Induction of reactive oxygen species production in human NCI-H596 cells at 5 uM measured after 5 hrs by DCFH-DA staining based flow cytometry; format: functional, cell-based
HepG2 [24] = assay: Antitumor activity against human HepG2 cells xenografted in BALB/c athymic nude mouse assessed as tumor growth inhibition at 20 mg/kg, iv administered at 2 days interval 19 days by caliper method relative to control; format: functional; conditions: 456 h, time 19 day, read-out: TGI
[25] = Toxicity in human HepG2 cells xenografted BALB/c athymic nude mouse assessed as change in body weight at 20 mg/kg, iv administered at 2 days interval 19 days; format: organism-based; conditions: in vivo, 456 h, time 19 day
HepG2 [26] = assay: Cell cycle arrest in human HepG2 cells assessed as accumulation at G0/G1 phase at 0.6 uM measured after 24 hrs by propidium iodide staining based flow cytometry analysis (reference value: 46.76%); format: functional
HepG2 [27] = assay: Cell cycle arrest in human HepG2 cells assessed as accumulation at G0/G1 phase at 1.2 uM measured after 24 hrs by propidium iodide staining based flow cytometry analysis (reference value: 46.76%); format: functional
HepG2 [28] = assay: Cell cycle arrest in human HepG2 cells assessed as accumulation at G0/G1 phase at 2.4 uM measured after 24 hrs by propidium iodide staining based flow cytometry analysis (reference value: 46.76%); format: functional

Compound: COc1cc2c(cc1OC)C1=C(C(=O)C2=O)C(c2cccc(O)c2)NC(=S)N1 (stereo unspecified)
IC50 (HepG2 [1]): 1530 nM | IC50 (NCI-H596 [2]): 1.76 µM | IC50 (A549 [3]): 1490 nM | IC50 (L02): 1710 nM | Drug metabolism [4]: 614 micromol/min/micromol protein | IC50 (A549 [5]): 1770 nM | selectivity ratio (in vitro): 0.97

Compound: Cc1cc(O)cc(C2NC(=S)NC3=C2C(=O)C(=O)c2ccccc23)c1 (stereo unspecified)
IC50 (HepG2 [1]): 1340 nM | IC50 (NCI-H596 [2]): 10.9 µM | IC50 (A549 [3]): 1210 nM | IC50 (L02): 8410 nM | Drug metabolism [4]: 539 micromol/min/micromol protein | IC50 (A549 [5]): 490 nM | selectivity ratio (in vitro): 17.2

Compound: O=C1C(=O)c2ccccc2C2=C1C(c1cccc(O)c1)NC(=S)N2 (stereo unspecified)
IC50 (HepG2 [1]): 2120 nM | IC50 (NCI-H596 [2]): 2.49 µM | IC50 (A549 [3]): 1710 nM | IC50 (L02): 2880 nM | Drug metabolism [4]: 1128 micromol/min/micromol protein | IC50 (A549 [5]): 370 nM | selectivity ratio (in vitro): 7.78

Compound: COc1ccc2c(c1)C(=O)C(=O)C1=C2NC(=S)NC1c1cccc(O)c1 (stereo unspecified)
IC50 (HepG2 [1]): 1600 nM | IC50 (NCI-H596 [2]): 7.07 µM | IC50 (A549 [3]): 4550 nM | IC50 (L02): 21000 nM | Drug metabolism [4]: 1530 micromol/min/micromol protein | viability at 0.8 µM (HepG2 [6]): 83.7% | Activity (HepG2 [7]): 7.21% | Activity (HepG2 [8]): 8.52% | Activity (HepG2 [9]): 0.52% | viability at 1.6 µM (HepG2 [10]): 78.1% | Activity (HepG2 [11]): 9.89% | Activity (HepG2 [12]): 11.48% | Activity (HepG2 [13]): 0.53% | viability at 3.2 µM (HepG2 [14]): 71.1% | Activity (HepG2 [15]): 12.67% | Activity (HepG2 [16]): 15.3% | Activity (HepG2 [17]): 0.95% | viability at 1.6 µM (NCI-H596 [18]): 90.8% | Activity (NCI-H596 [19]): 4.22% | Activity (NCI-H596 [20]): 4.81% | Activity (NCI-H596 [21]): 0.14% | Activity (HepG2 [22]): Active | Activity (NCI-H596 [23]): Active | inhibition in vivo at 20 mg/kg (HepG2 [24]): 58.1% | Activity [25]: Non-Toxic | Activity (HepG2 [26]): 48.54% | Activity (HepG2 [27]): 49.6% | Activity (HepG2 [28]): 53% | IC50 (A549 [5]): 720 nM | selectivity ratio (in vitro): 29.1

Compound: O=C1C(=O)c2ccccc2C2=C1C(c1cc(O)ccc1Br)NC(=S)N2 (stereo unspecified)
IC50 (HepG2 [1]): 1310 nM | IC50 (NCI-H596 [2]): 1.61 µM | IC50 (A549 [3]): 1550 nM | IC50 (L02): 1510 nM | Drug metabolism [4]: 1083 micromol/min/micromol protein | IC50 (A549 [5]): 480 nM | selectivity ratio (in vitro): 3.15

More lines, main results first:

IC50 (HepG2 [1]): 1690 nM | IC50 (NCI-H596 [2]): 17.1 µM | IC50 (A549 [3]): 1430 nM | Drug metabolism [4]: 941 micromol/min/micromol protein | IC50 (A549 [5]): 960 nM
Compound: O=C1C(=O)c2ccccc2C2=C1C(c1cc(O)cc(Cl)c1)NC(=S)N2 (stereo unspecified)
IC50 (L02): 4580 nM | selectivity ratio (in vitro): 4.77

IC50 (HepG2 [1]): 1700 nM | IC50 (NCI-H596 [2]): 2.52 µM | IC50 (A549 [3]): 1500 nM | Drug metabolism [4]: 1427 micromol/min/micromol protein | IC50 (A549 [5]): 320 nM
Compound: COc1ccc2c(c1)C1=C(C(=O)C2=O)C(c2cc(C)cc(O)c2)NC(=S)N1 (stereo unspecified)
IC50 (L02): 1860 nM | selectivity ratio (in vitro): 5.81

IC50 (HepG2 [1]): 1190 nM | IC50 (NCI-H596 [2]): 7.69 µM | IC50 (A549 [3]): 1510 nM | Drug metabolism [4]: 528 micromol/min/micromol protein | IC50 (A549 [5]): 980 nM
Compound: O=C1C(=O)c2ccccc2C2=C1C(c1cc(O)ccc1F)NC(=S)N2 (stereo unspecified)
IC50 (L02): 1560 nM | selectivity ratio (in vitro): 1.59

IC50 (HepG2 [1]): 3200 nM | IC50 (NCI-H596 [2]): 7.6 µM | IC50 (A549 [3]): 3000 nM | Drug metabolism [4]: 852 micromol/min/micromol protein | IC50 (A549 [5]): 2420 nM
Compound: O=C1C(=O)c2ccccc2C2=C1C(c1cc(O)cc(Br)c1)NC(=S)N2 (stereo unspecified)
IC50 (L02): 3050 nM | selectivity ratio (in vitro): 1.26
